Results on 15 compounds are retold here after patent US20240246918A1, “COMPOUNDS AND COMPOSITIONS AS EIF4E INHIBITORS AND THE USES THEREOF” (Ribometrix, Inc., priority 2022, published 2024).

As usually defined, the IC50 is the concentration at which inhibition is half-maximal.

Read-outs that look alike come from different tables or passages of the source.

For test [1], the system named is cap-dependent translation in Flp-In-293 reporter cells. Briefly: Cellular cap-dependent translation inhibition assay (dual luciferase assay, DLA; Fluc/Rluc ratio, 24 hours). In kind it is cell-based. As to conditions: dual luciferase assay, Flp-In-293 reporter cells, 24 hours, Fluc/Rluc ratio, read-out: DLA 205 IC50.
In test [2] the test system is cyclin D1 protein levels in COLO 205 cells. Briefly: Cyclin D1 cellular inhibition assay (HTRF, 6 hours). It counts as cell-based. As to conditions: 6 hours of compound treatment, Cyclin D1 protein levels by HTRF, read-out: COLO 205 6 h Cyclin D1 TR-FRET IC50. A digest of the protocol:
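COLO 205 cells in RPMI-1640 with 10% FBS treated 6 h with 11-point compound dilutions at 1% DMSO final. Lysates assayed for cyclin D1 by HTRF. Signal normalized to DMSO and maximum-inhibition controls, with IC50 from 4-parameter fit.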
For orientation: In TR-FRET formats the signal depends on donor and acceptor labels being close together.

Another test concerns the target T1, human eIF4E protein (Homo sapiens, UniProt P06730).
T1 construct: purchased Novus NBP-45314
Kind of test: Biochemical competitive binding assay (TR-FRET competition, EDA-m7GDP-ATTO-647N probe). As to conditions: read-out: hEIF4E TR-FRET IC50. The procedure, abridged: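 IC50 values come from 4-parameter fits of the normalized 665/620 nm TR-FRET ratio. Compound was first incubated 15 min with 4 nM recombinant His-eIF4E bound to 2.5 nM Eu-anti-His antibody, then 15 min with 5 nM m7GDP-ATTO-647N tracer, in pH 7.5 HEPES buffer with 100 mM KCl, Tween-20 and BSA.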

Test [3] relates to COLO 205 colorectal tumor cells. Kind of test: Tumor cell viability inhibition assay (CellTiter-Glo 2.0, 72 hours). As to conditions: COLO 205 cell viability. It counts as cell-based. The procedure, abridged:
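IC50 derived by 4-parameter fitting after normalizing luminescence to DMSO and max-inhibition wells. Compounds tested as 11 concentrations in 4-fold steps on COLO 205 cells seeded at 1500 per well in RPMI-1640/10% FBS; ATP content measured with CellTiter-Glo 2.0 after 72 h.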
In general terms: In ATP-based viability assays light output follows the ATP content of the culture.

T1 sequence (P06730 whole entry): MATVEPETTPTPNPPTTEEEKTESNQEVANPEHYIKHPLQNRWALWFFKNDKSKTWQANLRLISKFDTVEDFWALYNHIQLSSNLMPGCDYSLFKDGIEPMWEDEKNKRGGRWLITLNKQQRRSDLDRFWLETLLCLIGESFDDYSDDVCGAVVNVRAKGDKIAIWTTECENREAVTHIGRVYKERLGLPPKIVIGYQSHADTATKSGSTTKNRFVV

As to `Cc1sc2c(-c3cc(Cl)ccc3OCCn3c(C)nc4c(c3=O)CC(N(C)C3CC3)CC4)cn(C)c(=O)c2c1C(=O)O` (single isomer, unassigned) [Compound 244], the IC50 in test [1] (Homo sapiens, Flp-In-293, 24 h) is over 5 µM; in test [2] (Homo sapiens, COLO 205, 6 h), over 20 µM; at human eIF4E protein, 0.1 to 0.5 µM; in test [3] (Homo sapiens, COLO 205, 72 h), over 20 µM.

As for `Cc1cc(-c2cc(Cl)ccc2OCCn2c(C)nc3c(c2=O)CC(N2CCCCC2)CC3)c2scc(C(=O)NS(C)(=O)=O)c2n1` (single isomer, unassigned) [Compound 245], the IC50 was under 1 µM in test [1], 5 to 20 µM in test [2], under 0.1 µM at human eIF4E protein and 5 to 20 µM in test [3].

Consider `Cc1cc(-c2cc(Cl)ccc2OCCn2c(C)nc3c(c2=O)CC(N(CC2CC(F)(F)C2)C2CC2)CC3)c2scc(C(=O)O)c2n1` (single isomer, unassigned) [Compound 257], for which the IC50 in test [1] (Homo sapiens, Flp-In-293, 24 h) was under 1 µM; in test [2] (Homo sapiens, COLO 205, 6 h) it was 5 to 20 µM; on human eIF4E protein, under 0.1 µM; in test [3] (Homo sapiens, COLO 205, 72 h) it was 5 to 20 µM.

For the compound `Cc1cc(-c2cc(Cl)ccc2OCCn2c(C)nc3c(c2=O)CC(N(CC2CC(F)(F)C2)C2CC2)CC3)c2scc(C(=O)NS(C)(=O)=O)c2n1` (single isomer, unassigned) [Compound 260], the IC50 in test [1] (Homo sapiens, Flp-In-293, 24 h) is under 1 µM; in test [2] (Homo sapiens, COLO 205, 6 h), under 5 µM; at human eIF4E protein, under 0.1 µM; in test [3] (Homo sapiens, COLO 205, 72 h), under 5 µM.

As to `Cc1cc(-c2cc(Cl)ccc2OCCn2c(C)nc3c(c2=O)CC(N(CC2CC(F)(F)C2)C2CC2)CC3)c2scc(C(=O)NS(C)(=O)=O)c2n1` (single isomer, unassigned) [Compound 261], the IC50 is under 1 µM in test [1], 5 to 20 µM in test [2], under 0.1 µM at human eIF4E protein and under 5 µM in test [3].

In the case of `Cc1cc(-c2cc(Cl)ccc2OCCn2c(C)nc3c(c2=O)CC(N(CC2CC(F)(F)C2)C2CC2)CC3)c2scc(C(=O)O)c2n1` (single isomer, unassigned) [Compound 263], the IC50 in test [1] is under 1 µM; in test [2] it was under 5 µM; on human eIF4E protein, under 0.1 µM; in test [3], under 5 µM.

In the case of `Cc1nc2c(c(=O)n1CC#Cc1ccc(Cl)cc1-c1ccnc3c(C(=O)O)csc13)C[C@H](N1CC[C@@H](F)C1)CC2` (single isomer, unassigned) [Compound 326], the IC50 in test [1] (Homo sapiens, Flp-In-293, 24 h) was under 1 µM; in test [2] (Homo sapiens, COLO 205, 6 h) it was under 5 µM; on human eIF4E protein, under 0.1 µM; in test [3] (Homo sapiens, COLO 205, 72 h), under 5 µM.

Take `Cc1cc(-c2cc(Cl)ccc2OCCn2c(C)nc3c(c2=O)C[C@H](N2CC[C@@H](F)C2)CC3)c2scc(C(=O)O)c2n1` (single isomer, unassigned) [Compound 328]: the IC50 in test [1] (Homo sapiens, Flp-In-293, 24 h) is under 1 µM; in test [2] (Homo sapiens, COLO 205, 6 h), under 5 µM; on human eIF4E protein, under 0.1 µM; in test [3] (Homo sapiens, COLO 205, 72 h), under 5 µM.

With `Cc1nc2c(c(=O)n1CCOc1ccc(Cl)cc1-c1cccc(C(=O)O)c1)CC(N(C)C)CC2` (stereo not drawn) [Compound 1, 3-[5-chloranyl-2-[2-[6-[di(methyl)amino]-2-methyl-4-oxidanylidene-5,6,7,8-tetrahydroquinazolin-3-yl]ethoxy]phenyl]benzoic acid], the IC50 in test [1] (Homo sapiens, Flp-In-293, 24 h) is under 1 µM; in test [2] (Homo sapiens, COLO 205, 6 h) it was 5 to 20 µM; on human eIF4E protein, under 0.1 µM; in test [3] (Homo sapiens, COLO 205, 72 h), 5 to 20 µM.

For the compound `Cc1cc(-c2cc(Cl)ccc2OCCn2c(C)nc3c(c2=O)CC(N(C)C)CC3)c2scc(C(=O)O)c2n1` (stereo not drawn) [Compound 3, 7-[5-chloranyl-2-[2-[6-[di(methyl)amino]-2-methyl-4-oxidanylidene-5,6,7,8-tetrahydroquinazolin-3-yl]ethoxy]phenyl]-5-methyl-thieno[3,2-b]pyridine-3-carboxylic acid; 2,2,2-tris(fluorenyl)acetic acid], the IC50 was under 1 µM in test [1] (Homo sapiens, Flp-In-293, 24 h); under 5 µM in test [2] (Homo sapiens, COLO 205, 6 h); under 0.1 µM on human eIF4E protein; under 5 µM in test [3] (Homo sapiens, COLO 205, 72 h).

Take `Cc1cc(-c2cc(Cl)ccc2OCCn2c(C)nc3c(c2=O)CC(N2CCCCC2)CC3)c2scc(C(=O)O)c2n1` (stereo not drawn) [Compound 11]: the IC50 in test [1] (Homo sapiens, Flp-In-293, 24 h) was under 1 µM; in test [2] (Homo sapiens, COLO 205, 6 h) it was under 5 µM; at human eIF4E protein it was under 0.1 µM; in test [3] (Homo sapiens, COLO 205, 72 h) it was under 5 µM.

On to `Cc1cc(-c2cc(Cl)ccc2OCCn2c(C)nc3c(c2=O)CC(N(C)CC2(C)COC2)CC3)c2scc(C(=O)O)c2n1` (stereo not drawn) [Compound 18], for which the IC50 in test [1] (Homo sapiens, Flp-In-293, 24 h) is under 1 µM; in test [2] (Homo sapiens, COLO 205, 6 h), under 5 µM; at human eIF4E protein, under 0.1 µM; in test [3] (Homo sapiens, COLO 205, 72 h), under 5 µM.

For the compound `Cc1cc(-c2cc(Cl)ccc2OCCn2c(C)nc3c(c2=O)CC(N2CCCCC2)CC3)c2scc(C(=O)NS(C)(=O)=O)c2n1` (stereo not drawn) [Compound 31], the IC50 in test [1] (Homo sapiens, Flp-In-293, 24 h) was under 1 µM; in test [2] (Homo sapiens, COLO 205, 6 h) it was under 5 µM; at human eIF4E protein it was under 0.1 µM; in test [3] (Homo sapiens, COLO 205, 72 h), under 5 µM.

With `Cc1cc(-c2cc(Cl)ccc2OCCn2c(C)nc3c(c2=O)CC(N(C)C2CC2)CC3)c2scc(C(=O)O)c2n1` (stereo not drawn) [Compound 46], the IC50 in test [1] (Homo sapiens, Flp-In-293, 24 h) is under 1 µM; in test [2] (Homo sapiens, COLO 205, 6 h), under 5 µM; at human eIF4E protein it was under 0.1 µM; in test [3] (Homo sapiens, COLO 205, 72 h), under 5 µM.

With `Cc1cc(-c2cc(Cl)ccc2OCCn2c(C)nc3c(c2=O)CC(N(C)C2CC2)CC3)c2scc(C(=O)NS(C)(=O)=O)c2n1` (stereo not drawn) [Compound 51], the IC50 in test [1] (Homo sapiens, Flp-In-293, 24 h) is under 1 µM; in test [2] (Homo sapiens, COLO 205, 6 h), under 5 µM; on human eIF4E protein it was under 0.1 µM; in test [3] (Homo sapiens, COLO 205, 72 h), under 5 µM.
